Read-outs that look alike come from different tables or passages of the source.
How the values were obtained:
MCF7 = assay: MTT cytotoxicity assay, MCF7 cells (uninduced); type: cell-based, human; conditions: Homo sapiens, MCF7, 96 h, read-out: IC50 MCF7
Protocol: (§1) The antiproliferative activity of the resveratrol analogues was investigated using a human breast cell line panel, which has been characterised for CYP1 expression in our laboratories. IC50 values for both cis- and trans-isomers were determined using a standard 3-[4,5-dimethylthiazol-2-yl]-2,5-diphenyl tetrazolium bromide (MTT) cell viability assay and are shown in Table 1 (trans-stilbene analogues) and Table 2 (cis-stilbene analogues).
(§2) MCF7 cells are both ER positive and Ah receptor positive and have been well documented for their CYP1 expression, and it is known that treatment with TCDD elevates CYP1A1 and CYP1B1 expression. The cells were treated with DMSO (0.1%) for 24 h for constitutive expression, whereas for inducible CYP1 expression, the cells were treated with TCDD (10 nM) for 24 h.
(§3) A standard MTT (3-[4,5-dimethylthiazol-2-yl]-2,5-diphenyl tetrazolium bromide) cell viability assay was employed to evaluate the cytotoxicity of the stilbenes prepared. The MTT assay is a rapid quantitative spectrophotometric method for determining cell growth (viability) due to necrosis or apoptosis in monolayer-cultured cell lines in response to external factors. It is widely employed to evaluate the cytotoxicity of potential medicinal agents.
(§4) MCF7 cells were grown in RPMI-1640 medium with phenol red and 10% (v/v) heat-inactivated (heated to 56 °C for 45 min) foetal calf serum. MDA-468 cells were grown in RPMI-1640 medium with 10% (v/v) heat-inactivated foetal calf serum and L-glutamine (2 mM) without phenol red. MCF-10A cells were grown in Dulbecco’s modified Eagle’s medium/ Ham’s F-12 medium (1:1) with 5% (v/v) heat-inactivated foetal calf serum, epidermal growth factor (20 ng/mL), insulin ([…]) and hydrocortisone (500 ng/mL). Cells were maintained at 37 °C, 5% CO2/95% air with 100% humidity and passaged every 2–3 days using trypsin EDTA solution (0.25% w/v). Adhered cells at sub confluence were harvested for experimental use.
(§5) Aliquots of cell suspensions (100 µL at 2 × 10^3 cells per ml) were dispensed into sterile 96-well microtiter flat-bottomed plates. For the MDA468 and MCF10A cell lines, the plates were incubated at 37 °C, 5% CO2/95% air with 100% humidity for 24 h prior to the addition of test compounds. For MCF7 cells, after allowing approximately 4 h for cells to adhere, 100 µL of medium containing TCDD (from 100 mM stock in DMSO) or medium with 0.2% (v/v) DMSO was added to give a final concentration of 10 nM TCDD and 0.1% (v/v) DMSO. After 24 h, the medium was aspirated and replaced with fresh medium (100 µL) before the addition of test compounds.
(§6) Then, 100 µL aliquots of test compounds were added within 30 min into the wells from a 100 mM stock solution in DMSO and serially diluted to give final concentrations of […], 0.01, 0.003, 0.001 and 0.0003 µM. […] The cells were allowed to grow for 96 h at 5% CO2, 37 °C, to give 80–90% confluence in the control wells, after which 50 µL of 2 mg/mL MTT (final concentration 0.4 mg/mL) in sterile phosphate buffer was added to each well and the plates were further incubated for 2 h. All medium was aspirated and the formazan precipitate generated by viable cells was solubilised by 150 µL of DMSO. All the plates were vortexed and the absorbance at 540 nm was determined using a SpectraMax M5 plate reader (Molecular Devices, Wokingham, UK).
(§7) Results were expressed as a percentage of the control value versus the negative logarithm of the molar drug concentration range using GraphPad Prism (Version 5.00). Relative toxicities of each compound within each cell line were expressed as 50% of growth inhibition (IC50). All determinations were carried out in quadruplicate.

MCF7 (TCDD) = assay: MTT cytotoxicity assay, TCDD-induced MCF7 cells; type: cell-based, human; conditions: Homo sapiens
Protocol: as §1, §2, §3, §4, §5, §6, §7

MCF10A = assay: MTT cytotoxicity assay, MCF10A non-tumour control cells; type: cell-based; conditions: Homo sapiens, MCF-10A, 96 h, read-out: IC50 MCF10A
Protocol: as §1
MCF10A cells are non-tumourigenic human mammary epithelial in origin which have been spontaneously immortalised without chemical intervention. CYP1 activity in MCF10A cells is negligible. […] Thus, MCF10A cell line is commonly used as a control in cytotoxicity assays.
as §3, §4, §5, §6, §7

MDA468 = assay: MTT cytotoxicity assay, MDA468 cells; type: cell-based, human; conditions: for IC50: Homo sapiens, read-out: IC50 MDA468; for TS = tumour selectivity = IC50 MCF10A/IC50 MDA468: ratio of IC50 values
Protocol: as §1
MDA468 cells represent an aggressive multi-drug-resistant tumour type and are ER negative but are aryl hydrocarbon (Ah) receptor positive in the presence of TCDD [46].
as §3, §4, §5, §6, §7

MDA231 = assay: MTT cytotoxicity assay, MDA231 cells; type: cell-based; conditions: Homo sapiens, MDA-MB-231; triple negative breast tumour cell line
Protocol: DMU212 was also evaluated for cytotoxic activity in the aggressive, triple negative breast tumour cell line MDA231. This cell line has been reported to only weakly express CYP1A1 but constitutively express CYP1B1 [33]. […] However further studies would be required to confirm this statement.
MDA231 breast cancer cell line represents an aggressive tumour type. Treatment of this ER-negative and Ah receptor-positive cell line with TCDD has been reported to only weakly induce CYP1A1 mRNA expression but enhance the constitutive CYP1B1 expression. Other researchers have reported the ratio of active CYP1A1/CYP1B1 protein as 16/84 ratio in MDA231 [32].
as §3, with “It is widely employed to evaluate the cytotoxicity of potential medicinal agents.” left out
Then, 100 µL aliquots of test compounds were added within 30 min into the wells from a 100 mM stock solution in DMSO and serially diluted to give final concentrations of […], 0.01, 0.003, 0.001 and 0.0003 µM. […] All the plates were vortexed and the absorbance at 540 nm was determined using a SpectraMax M5 plate reader (Molecular Devices, Wokingham, UK). […]

[1] = tested on: CYP1 enzymes (CYP1A1, CYP1A2, CYP1B1); assay: Incubation with human CYP1 Supersomes, HPLC analysis; type: in vitro ADME; conditions: NADPH, 37 °C, 20 min
Protocol: The CYPs isozyme panel used in this study were prepared from transformed insect cells expressing human CYPs (CYP1A1, CYP1A2 or CYP1B1) with co-expression of human NADPH reductase (Supersomes^TM). […] The general procedure was as follows: DMU212 was separately incubated with CYP1A1, CYP1A2, CYP1B1, CYP3A4 and non-CYP-expressing Supersomes^TM in the presence of phosphate buffer and NADPH at 37 °C. Samples were taken at regular intervals of 5 min over a 20 min period, and the enzymatic reaction in the sample was terminated immediately. Following centrifugation, the supernatants were removed and analysed by HPLC.
After 10 min of analysis, a linear gradient was initiated with the acetonitrile content rising to 70% over 5 min and with the 50 mM ammonium acetate decreasing accordingly. An equilibration time of 6 min was allowed between each sample. Analysis was conducted with a Jasco (Jasco UK limited) analytical system consisting of an AS841 autosampler, PU980 pump and LG low-pressure tertiary mixing valve, FP1500 fluorescence detector (JASCO UK Ltd., Heckmondwike, UK), column heater/ chiller (Jones Chromatography), and DG440 in-line degasser (Phenomenex, UK). Analytical data were collected using Borwin HPLC software (version 1.5), For the detection of DMU215, an in-line photoreactivity cell was used (Beam Boost^TM, Advanced Separations Technology Incorporated).

[2] = mouse, 0.2% (w/w) of the diet for 14 weeks; cited from earlier work
[3] = tested on: human breast cell line panel; assay: MTT cytotoxicity assay, statements for all cell lines of the panel; type: cell-based; conditions: MCF7, MCF7 (TCDD), MCF10A, MDA468; summary of the text
Protocol: as §1, §3, §4, §5, §6, §7

SMILES	IC50 (MCF7) [nM]	IC50 (MCF7 (TCDD); MCF7, read-out: IC50 MCF7 (TCDD)) [nM]	IC50 (MCF10A) [nM]	IC50 (MDA468; 96 h) [nM]	TS = tumour selectivity = IC50 MCF10A/IC50 MDA468 (MDA468)	TS = tumour selectivity = IC50 MCF10A/IC50 MDA468 (MDA468; listed as 212)	IC50 (MDA231) [nM]	substrate for CYP1 enzymes [1]	hepatotoxicity [2]	steady state level in the liver [2]	IC50 (MCF7; MTT assay, 96 h incubation, 37 °C, means of quadruplicate) [nM]	IC50 (MCF7 (TCDD); MCF7, MTT assay, 96 h incubation, cells induced with 10 nM TCDD for 24 h, read-out: IC50 MCF7 (TCDD)) [nM]	IC50 (MCF10A; MTT assay, 96 h incubation, non-tumour control cells) [nM]	IC50 (MDA468; MTT assay, 96 h incubation) [nM]	IC50 for all cell lines tested [3]
COc1ccc(/C=C/c2cc(OC)c(OC)c(OC)c2)cc1 [DMU212, (E)-4,3′,4′,5′-tetramethoxystilbene]	2600	120	4300	1	over 4000	4300	> 100000	substrate for CYP1 enzymes	without any obvious signs of hepatoxicity	up to 0.7 nmol/g tissue	–	–	–	–	–
COc1cc(C=Cc2ccc(O)c(O)c2)cc(OC)c1OC [DMU283, 3,4,5-trimethoxy-3′,4′-dihydroxy stilbene]	–	–	–	–	0.16	–	–	–	–	–	20	140	8	50	sub-micromolar IC50 values

From paper PMC10818546, “CYP1-Activation and Anticancer Properties of Synthetic Methoxylated Resveratrol Analogues” (Molecules, 2024)
